Measured values from patent publication US12660819B2, “Herbicidal derivatives” (SYNGENTA CROP PROTECTION AG, priority 2020, dated 2026).

Assays:
Format in all cases: in vivo
[1] = test system: Amaranthus retoflexus (AMARE); experiment: Pre-emergence Test (glasshouse, percentage damage to the plant); details: 1000 g/ha unless otherwise stated; for percentage damage to the plant, AMARE: five-point scale
[2] = test system: Zea mays (ZEAMX); experiment: as above; details: 1000 g/ha unless otherwise stated; for percentage damage to the plant, ZEAMX: five-point scale
[3] = test system: Setaria faberi (SETFA); experiment: as above; details: 1000 g/ha unless otherwise stated; for percentage damage to the plant, SETFA: five-point scale
[4] = test system: Echinochloa crus-galli (ECHCG); experiment: Post-emergence Test (glasshouse, percentage damage to the plant); details: post-emergence spray, 1000 g/ha unless otherwise stated, evaluated after 13 days
In short: (§1)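 Seeds sown in standard soil in a glasshouse (24/16 °C day/night, 14 h light, 65% humidity), then sprayed with an aqueous solution of the compound formulated in acetone/water 50:50 with 0.5% Tween 20 at 1000 g/ha unless otherwise stated. Percentage damage was scored after 13 days on a five-point scale (5=81-100%; 1=0-20%).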

[5] = test system: Setaria faberi (SETFA); experiment: as above; details: 1000 g/ha unless otherwise stated, evaluated after 13 days; for Post-emergence Test SETFA, percentage damage to the plant (five-point scale): post-emergence spray
In short: (§2)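 Compound formulated in 50:50 acetone/water with 0.5% Tween 20 was diluted to an aqueous spray and applied at 1000 g/ha, unless otherwise stated, onto sown pots. Evaluation after 13 days gave percentage damage, banded into a 1–5 score.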

[6] = test system: Abutilon theophrasti (ABUTH); experiment: as above; details: 1000 g/ha unless otherwise stated, evaluated after 13 days; for Post-emergence Test ABUTH, percentage damage to the plant (five-point scale): post-emergence spray
In short: as §1

[7] = test system: Ipomoea hederacea (IPOHE); experiment: as above; details: 1000 g/ha unless otherwise stated, evaluated after 13 days; for Post-emergence Test IPOHE, percentage damage to the plant (five-point scale): post-emergence spray
In short: as §2

[8] = test system: Zea mays (ZEAMX); experiment: as above; details: 1000 g/ha unless otherwise stated, evaluated after 13 days; for Post-emergence Test ZEAMX, percentage damage to the plant (five-point scale): post-emergence spray
In short: as §2

[9] = test system: Amaranthus retoflexus (AMARE); experiment: as above; details: 1000 g/ha unless otherwise stated, evaluated after 13 days; for Post-emergence Test AMARE, percentage damage to the plant (five-point scale): post-emergence spray
In short: as §1

[10] = test system: Echinochloa crus-galli (ECHCG); experiment: Pre-emergence Test (glasshouse, percentage damage to the plant); details: 1000 g/ha unless otherwise stated; for percentage damage to the plant, ECHCG: five-point scale
[11] = test system: Ipomoea hederacea (IPOHE); experiment: as above; details: 1000 g/ha unless otherwise stated; for percentage damage to the plant, IPOHE: five-point scale
[12] = test system: Abutilon theophrasti (ABUTH); experiment: as above; details: 1000 g/ha unless otherwise stated; for percentage damage to the plant, ABUTH: five-point scale

SMILES: CCn1c(C)c(-c2cccc(SC)c2)c(=O)c(C(=O)O)c1-c1ccc(Cl)c(Cl)c1 [Compound 114, 2-(3,4-dichlorophenyl)-1-ethyl-6-methyl-5-(3-methylsulfanylphenyl)-4-oxo-pyridine-3-carboxylic acid]
- percentage damage to the plant, AMARE [1]: 1 (1=0-20%)
- percentage damage to the plant, ZEAMX [2]: 1 (1=0-20%)
- percentage damage to the plant, SETFA [3]: 1 (1=0-20%)
- Post-emergence Test ECHCG, percentage damage to the plant (five-point scale) [4]: 1 (1=0-20%)
- Post-emergence Test SETFA, percentage damage to the plant (five-point scale) [5]: 1 (1=0-20%)
- Post-emergence Test ABUTH, percentage damage to the plant (five-point scale) [6]: 1 (1=0-20%)
- Post-emergence Test IPOHE, percentage damage to the plant (five-point scale) [7]: 1 (1=0-20%)
- Post-emergence Test ZEAMX, percentage damage to the plant (five-point scale) [8]: 1 (1=0-20%)
- Post-emergence Test AMARE, percentage damage to the plant (five-point scale) [9]: 1 (1=0-20%)
- percentage damage to the plant, ECHCG [10]: 1 (1=0-20%)
- percentage damage to the plant, IPOHE [11]: 1 (1=0-20%)
- percentage damage to the plant, ABUTH [12]: 1 (1=0-20%)

SMILES: CCn1c(C)c(-c2ccnc(OC)c2)c(=O)c(C(=O)O)c1-c1ccc(Cl)c(Cl)c1 [Compound 53, 2-(3,4-dichlorophenyl)-1-ethyl-5-(2-methoxy-4-pyridyl)-6-methyl-4-oxo-pyridine-3-carboxylic acid]
- percentage damage to the plant, AMARE [1]: 1 (1=0-20%)
- percentage damage to the plant, ZEAMX [2]: 1 (1=0-20%)
- percentage damage to the plant, SETFA [3]: 4 (4=61-80%)
- Post-emergence Test ECHCG, percentage damage to the plant (five-point scale) [4]: 3 (3=41-60%)
- Post-emergence Test SETFA, percentage damage to the plant (five-point scale) [5]: 4 (4=61-80%)
- Post-emergence Test ABUTH, percentage damage to the plant (five-point scale) [6]: 4 (4=61-80%)
- Post-emergence Test IPOHE, percentage damage to the plant (five-point scale) [7]: 2 (2=21-40%)
- Post-emergence Test ZEAMX, percentage damage to the plant (five-point scale) [8]: 2 (2=21-40%)
- Post-emergence Test AMARE, percentage damage to the plant (five-point scale) [9]: 3 (3=41-60%)
- percentage damage to the plant, ECHCG [10]: 3 (3=41-60%)
- percentage damage to the plant, IPOHE [11]: 3 (3=41-60%)
- percentage damage to the plant, ABUTH [12]: 3 (3=41-60%)

SMILES: CCn1c(C)c(-c2cccc(OCC(F)(F)F)c2)c(=O)c(C(=O)O)c1-c1ccc(Cl)c(Cl)c1 [Compound 110, 2-(3,4-dichlorophenyl)-1-ethyl-6-methyl-4-oxo-5-[3-(2,2,2-trifluoroethoxy)phenyl] pyridine-3-carboxylic acid]
- percentage damage to the plant, AMARE [1]: 1 (1=0-20%)
- percentage damage to the plant, ZEAMX [2]: 1 (1=0-20%)
- percentage damage to the plant, SETFA [3]: 1 (1=0-20%)
- Post-emergence Test ECHCG, percentage damage to the plant (five-point scale) [4]: 1 (1=0-20%)
- Post-emergence Test SETFA, percentage damage to the plant (five-point scale) [5]: 1 (1=0-20%)
- Post-emergence Test ABUTH, percentage damage to the plant (five-point scale) [6]: 1 (1=0-20%)
- Post-emergence Test IPOHE, percentage damage to the plant (five-point scale) [7]: 1 (1=0-20%)
- Post-emergence Test ZEAMX, percentage damage to the plant (five-point scale) [8]: 1 (1=0-20%)
- Post-emergence Test AMARE, percentage damage to the plant (five-point scale) [9]: 1 (1=0-20%)
- percentage damage to the plant, ECHCG [10]: 1 (1=0-20%)
- percentage damage to the plant, IPOHE [11]: 1 (1=0-20%)
- percentage damage to the plant, ABUTH [12]: 1 (1=0-20%)

SMILES: CCn1c(C)c(C2=CCCC2)c(=O)c(C(=O)O)c1-c1ccc(Cl)c(Cl)c1 [Compound 68, 5-(cyclopenten-1-yl)-2-(3,4-dichlorophenyl)-1-ethyl-6-methyl-4-oxo-pyridine-3-carboxylic acid]
- percentage damage to the plant, AMARE [1]: 1 (1=0-20%)
- percentage damage to the plant, ZEAMX [2]: 1 (1=0-20%)
- percentage damage to the plant, SETFA [3]: 5 (5=81-100%)
- Post-emergence Test ECHCG, percentage damage to the plant (five-point scale) [4]: 2 (2=21-40%)
- Post-emergence Test SETFA, percentage damage to the plant (five-point scale) [5]: 3 (3=41-60%)
- Post-emergence Test ABUTH, percentage damage to the plant (five-point scale) [6]: 3 (3=41-60%)
- Post-emergence Test IPOHE, percentage damage to the plant (five-point scale) [7]: 3 (3=41-60%)
- Post-emergence Test ZEAMX, percentage damage to the plant (five-point scale) [8]: 1 (1=0-20%)
- Post-emergence Test AMARE, percentage damage to the plant (five-point scale) [9]: 1 (1=0-20%)
- percentage damage to the plant, ECHCG [10]: 1 (1=0-20%)
- percentage damage to the plant, IPOHE [11]: 2 (2=21-40%)
- percentage damage to the plant, ABUTH [12]: 1 (1=0-20%)

SMILES: CCn1c(C)c(-c2ccc(C(F)(F)F)nc2)c(=O)c(C(=O)O)c1-c1ccc(Cl)c(Cl)c1 [Compound 108, 2-(3,4-dichlorophenyl)-1-ethyl-6-methyl-4-oxo-5-[6-(trifluoromethyl)-3-pyridyl]pyridine-3-carboxylic acid]
- percentage damage to the plant, AMARE [1]: 1 (1=0-20%)
- percentage damage to the plant, ZEAMX [2]: 1 (1=0-20%)
- percentage damage to the plant, SETFA [3]: 3 (3=41-60%)
- Post-emergence Test ECHCG, percentage damage to the plant (five-point scale) [4]: 2 (2=21-40%)
- Post-emergence Test SETFA, percentage damage to the plant (five-point scale) [5]: 3 (3=41-60%)
- Post-emergence Test ABUTH, percentage damage to the plant (five-point scale) [6]: 2 (2=21-40%)
- Post-emergence Test IPOHE, percentage damage to the plant (five-point scale) [7]: 2 (2=21-40%)
- Post-emergence Test ZEAMX, percentage damage to the plant (five-point scale) [8]: 2 (2=21-40%)
- Post-emergence Test AMARE, percentage damage to the plant (five-point scale) [9]: 2 (2=21-40%)
- percentage damage to the plant, ECHCG [10]: 1 (1=0-20%)
- percentage damage to the plant, IPOHE [11]: 1 (1=0-20%)
- percentage damage to the plant, ABUTH [12]: 1 (1=0-20%)

SMILES: CCn1c(C)c(-c2cccc(OC)n2)c(=O)c(C(=O)O)c1-c1ccc(Cl)c(Cl)c1 [Compound 113, 2-(3,4-dichlorophenyl)-1-ethyl-5-(6-methoxy-2-pyridyl)-6-methyl-4-oxo-pyridine-3-carboxylic acid]
- percentage damage to the plant, AMARE [1]: 1 (1=0-20%)
- percentage damage to the plant, ZEAMX [2]: 2 (2=21-40%)
- percentage damage to the plant, SETFA [3]: 4 (4=61-80%)
- Post-emergence Test ECHCG, percentage damage to the plant (five-point scale) [4]: 3 (3=41-60%)
- Post-emergence Test SETFA, percentage damage to the plant (five-point scale) [5]: 4 (4=61-80%)
- Post-emergence Test ABUTH, percentage damage to the plant (five-point scale) [6]: 4 (4=61-80%)
- Post-emergence Test IPOHE, percentage damage to the plant (five-point scale) [7]: 2 (2=21-40%)
- Post-emergence Test ZEAMX, percentage damage to the plant (five-point scale) [8]: 2 (2=21-40%)
- Post-emergence Test AMARE, percentage damage to the plant (five-point scale) [9]: 3 (3=41-60%)
- percentage damage to the plant, ECHCG [10]: 1 (1=0-20%)
- percentage damage to the plant, IPOHE [11]: 2 (2=21-40%)
- percentage damage to the plant, ABUTH [12]: 3 (3=41-60%)

SMILES: CCn1c(C)c(-c2ccc(Cl)cc2)c(=O)c(C(=O)O)c1-c1ccnc(Cl)c1 [Compound 143, 5-(4-chlorophenyl)-2-(2-chloro-4-pyridyl)-1-ethyl-6-methyl-4-oxo-pyridine-3-carboxylic acid]
- percentage damage to the plant, AMARE [1]: 1 (1=0-20%)
- percentage damage to the plant, ZEAMX [2]: 3 (3=41-60%)
- percentage damage to the plant, SETFA [3]: 5 (5=81-100%)
- Post-emergence Test ECHCG, percentage damage to the plant (five-point scale) [4]: 4 (4=61-80%)
- Post-emergence Test SETFA, percentage damage to the plant (five-point scale) [5]: 4 (4=61-80%)
- Post-emergence Test ABUTH, percentage damage to the plant (five-point scale) [6]: 4 (4=61-80%)
- Post-emergence Test IPOHE, percentage damage to the plant (five-point scale) [7]: 4 (4=61-80%)
- Post-emergence Test ZEAMX, percentage damage to the plant (five-point scale) [8]: 4 (4=61-80%)
- Post-emergence Test AMARE, percentage damage to the plant (five-point scale) [9]: 2 (2=21-40%)
- percentage damage to the plant, ECHCG [10]: 5 (5=81-100%)
- percentage damage to the plant, IPOHE [11]: 1 (1=0-20%)
- percentage damage to the plant, ABUTH [12]: 3 (3=41-60%)

SMILES: CCn1c(-c2ccc(Cl)c(Cl)c2)c(C(=O)OC)c(=O)c(-c2ccc(Cl)cc2)c1C(F)F [Compound 205, methyl 5-(4-chlorophenyl)-2-(3,4-dichlorophenyl)-6-(difluoromethyl)-1-ethyl-4-oxo-pyridine-3-carboxylate]
- percentage damage to the plant, AMARE (five-point scale) ([1]; Amaranthus retoflexus): 0
- percentage damage to the plant, ZEAMX (five-point scale) ([2]; Zea mays): 0
- percentage damage to the plant, SETFA (five-point scale) ([3]; Setaria faberi): 0
- SETFA, percentage damage caused to the plant (five-point scale) ([5]; post-emergence): 0
- ABUTH, percentage damage caused to the plant (five-point scale) ([6]; post-emergence): 0
- IPOHE, percentage damage caused to the plant (five-point scale) ([7]; post-emergence): 1 (1=0-20%)
- ZEAMX, percentage damage caused to the plant (five-point scale) ([8]; post-emergence): 0
- AMARE, percentage damage caused to the plant (five-point scale) ([9]; post-emergence): 1 (1=0-20%)
- percentage damage to the plant, ECHCG (five-point scale) ([10]; Echinochloa crus-galli): 0
- percentage damage to the plant, IPOHE (five-point scale) ([11]; Ipomoea hederacea): 0
- percentage damage to the plant, ABUTH (five-point scale) ([12]; Abutilon theophrasti): 0

SMILES: CCn1c(C)c(-c2ccc(Cl)cc2)c(=O)c(C(=O)O)c1-c1ccc(Br)cc1F [Compound 133, 2-(4-bromo-2-fluoro-phenyl)-5-(4-chlorophenyl)-1-ethyl-6-methyl-4-oxo-pyridine-3-carboxylic acid]
- percentage damage to the plant, AMARE [1]: 2 (2=21-40%)
- percentage damage to the plant, ZEAMX [2]: 2 (2=21-40%)
- percentage damage to the plant, SETFA [3]: 5 (5=81-100%)
- Post-emergence Test SETFA, percentage damage to the plant (five-point scale) [5]: 1 (1=0-20%)
- Post-emergence Test ABUTH, percentage damage to the plant (five-point scale) [6]: 2 (2=21-40%)
- Post-emergence Test IPOHE, percentage damage to the plant (five-point scale) [7]: 3 (3=41-60%)
- Post-emergence Test ZEAMX, percentage damage to the plant (five-point scale) [8]: 1 (1=0-20%)
- Post-emergence Test AMARE, percentage damage to the plant (five-point scale) [9]: 4 (4=61-80%)
- percentage damage to the plant, ECHCG [10]: 4 (4=61-80%)
- percentage damage to the plant, IPOHE [11]: 2 (2=21-40%)
- percentage damage to the plant, ABUTH [12]: 3 (3=41-60%)
